Here are results for 1 molecule from paper PMC6530925 (Nature metabolism, 2019).

The structures appear in SMILES notation.

For this assay, the target named is T1, Slc12a8 (Mus musculus, UniProt Q8VI23).
T1 sequence (Q8VI23 1-705): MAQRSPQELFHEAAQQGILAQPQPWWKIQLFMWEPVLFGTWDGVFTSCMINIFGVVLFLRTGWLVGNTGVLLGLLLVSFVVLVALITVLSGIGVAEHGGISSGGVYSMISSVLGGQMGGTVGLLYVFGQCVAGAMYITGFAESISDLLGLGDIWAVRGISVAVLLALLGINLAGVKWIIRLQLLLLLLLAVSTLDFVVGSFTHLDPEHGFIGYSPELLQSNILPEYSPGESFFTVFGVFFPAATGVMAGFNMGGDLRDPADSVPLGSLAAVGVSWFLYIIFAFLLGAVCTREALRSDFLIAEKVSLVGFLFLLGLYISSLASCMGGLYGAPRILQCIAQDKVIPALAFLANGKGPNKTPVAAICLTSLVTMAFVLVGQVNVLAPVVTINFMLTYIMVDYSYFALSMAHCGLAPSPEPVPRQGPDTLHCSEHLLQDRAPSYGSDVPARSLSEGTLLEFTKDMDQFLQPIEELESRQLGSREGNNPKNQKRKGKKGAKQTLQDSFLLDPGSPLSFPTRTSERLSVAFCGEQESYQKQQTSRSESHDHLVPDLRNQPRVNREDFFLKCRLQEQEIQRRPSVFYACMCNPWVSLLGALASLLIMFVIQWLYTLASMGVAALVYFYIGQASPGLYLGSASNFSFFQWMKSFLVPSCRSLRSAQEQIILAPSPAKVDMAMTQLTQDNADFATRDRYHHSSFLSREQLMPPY
Put plainly: 3H-NMN uptake into Slc12a8-OE proteoliposomes with cold NMN competition. The assay is classed as biochemical.

The term IC50 denotes the concentration that gives 50% inhibition.

Turning to `NC(=O)c1ccc[n+]([C@@H]2O[C@H](COP(=O)([O-])O)[C@@H](O)[C@H]2O)c1` [NMN, Nicotinamide mononucleotide], the IC50 is 22.8 ± 3.6 µM.
